Results reported in patent US20070270418A1, “Inhibitors of P38 and Methods of Using the Same” (priority 2003, published 2007).

Legend:
[1] = test system: TNFα release from THP-1 cells; assay: TNFα release from LPS-stimulated THP-1 cells; type: cell-based; settings: Homo sapiens, THP-1, 18 h, LPS 10 μg/ml, 18 hours; read-out: TNFα (THP-1) IC50
Summary of the method: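 THP-1 cells (10^6 cells/ml on resuspension) preincubated with compound 30 min at 37°C, 5% CO2, final DMSO ≤0.5%, then stimulated with 10 μg/ml LPS for 18 h (TNFα). Supernatants collected for TNFα analysis.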

[2] = biological target: T1, CK2 (Homo sapiens, UniProt P68400); assay: Broad selectivity panel, 32P incorporation; type: biochemical; settings: 40 μM ATP, read-out: Percent inhibition CK2; for inhibition at 0.1 µM: 0.1 μM compound; for inhibition at 1 µM: 1 μM compound
T1 construct: purchased Upstate (Charlottesville, Va.)
Method: (§1) Various compounds of the present invention are screened against a panel of 24 additional kinases (Upstate, Charlottesville, Va.). Compounds are tested 0.1 μM and 1 μM in reactions containing 40 μM ATP. Incorporation of radiolabeled phosphate (^32P) into each kinase substrate is measured in the presence and absence of test compound. Results are reported as the percent decrease in the amount of ^32P incorporated into the substrate in the presence of compound, compared to buffer control.

[3] = biological target: T2, GSK3β (Homo sapiens, UniProt P49841); assay: Broad selectivity panel, 32P incorporation; type: biochemical; settings: 40 μM ATP, read-out: Percent inhibition GSK3β; for inhibition at 0.1 µM: 0.1 μM compound; for inhibition at 1 µM: 1 μM compound
T2 construct: purchased Upstate (Charlottesville, Va.)
Method: as §1

[4] = biological target: T3, JNK3-His (Homo sapiens, UniProt P53779); assay: Broad selectivity panel, 32P incorporation; type: biochemical; settings: 40 μM ATP, read-out: Percent inhibition JNK3-His; for inhibition at 0.1 µM: 0.1 μM compound; for inhibition at 1 µM: 1 μM compound
T3 construct: His; purchased Upstate (Charlottesville, Va.)
Method: as §1

[5] = biological target: T4, MAPK2 (Homo sapiens, UniProt P28482); assay: Broad selectivity panel, 32P incorporation; type: biochemical; settings: 40 μM ATP, read-out: Percent inhibition MAPK2; for inhibition at 0.1 µM: 0.1 μM compound; for inhibition at 1 µM: 1 μM compound
T4 construct: purchased Upstate (Charlottesville, Va.)
Method: as §1

[6] = biological target: T5, MEK1 (Homo sapiens, UniProt Q02750); assay: Broad selectivity panel, 32P incorporation; type: biochemical; settings: 40 μM ATP, read-out: Percent inhibition MEK1; for inhibition at 0.1 µM: 0.1 μM compound; for inhibition at 1 µM: 1 μM compound
T5 construct: purchased Upstate (Charlottesville, Va.)
Method: as §1

[7] = biological target: T6, PKB α (Homo sapiens, UniProt P31749); assay: Broad selectivity panel, 32P incorporation; type: biochemical; settings: 40 μM ATP, read-out: Percent inhibition PKB α; for inhibition at 0.1 µM: 0.1 μM compound; for inhibition at 1 µM: 1 μM compound
T6 construct: purchased Upstate (Charlottesville, Va.)
Method: as §1

[8] = test system: ROCK-II; assay: Broad selectivity panel, 32P incorporation; type: biochemical; settings: 40 μM ATP
Method: as §1

[9] = biological target: T7, SAPK4 (Homo sapiens, UniProt O15264); assay: Broad selectivity panel, 32P incorporation; type: biochemical; settings: 40 μM ATP, read-out: Percent inhibition SAPK4; for inhibition at 0.1 µM: 0.1 μM compound; for inhibition at 1 µM: 1 μM compound
T7 construct: purchased Upstate (Charlottesville, Va.)
T7 sequence (O15264 1-365): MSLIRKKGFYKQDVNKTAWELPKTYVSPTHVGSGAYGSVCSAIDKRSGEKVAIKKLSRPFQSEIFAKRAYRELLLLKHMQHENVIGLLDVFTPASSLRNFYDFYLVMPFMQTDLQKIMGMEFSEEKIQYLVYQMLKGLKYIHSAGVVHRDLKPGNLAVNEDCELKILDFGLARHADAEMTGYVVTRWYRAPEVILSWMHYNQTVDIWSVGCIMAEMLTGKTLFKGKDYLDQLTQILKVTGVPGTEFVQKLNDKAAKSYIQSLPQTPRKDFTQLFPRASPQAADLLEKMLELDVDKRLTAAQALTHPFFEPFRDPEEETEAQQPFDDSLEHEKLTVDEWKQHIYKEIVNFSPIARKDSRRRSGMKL
Method: as §1

[10] = biological target: T8, InsR (Homo sapiens, UniProt P06213); assay: Broad selectivity panel, 32P incorporation; type: biochemical; settings: 40 μM ATP, read-out: Percent inhibition InsR; for inhibition at 0.1 µM: 0.1 μM compound; for inhibition at 1 µM: 1 μM compound
T8 construct: purchased Upstate (Charlottesville, Va.)
Method: (§2) Various compounds of the present invention are screened against a panel of 24 additional kinases (Upstate, Charlottesville, Va.). Compounds are tested 0.1 μM and 1 μM in reactions containing 40 μM ATP. Incorporation of radiolabeled phosphate (^32P) into each kinase substrate is measured in the presence and absence of test compound.

[11] = biological target: T9, Lck (Homo sapiens, UniProt P06239); assay: Broad selectivity panel, 32P incorporation; type: biochemical; settings: 40 μM ATP, read-out: Percent inhibition Lck; for inhibition at 0.1 µM: 0.1 μM compound; for inhibition at 1 µM: 1 μM compound
T9 construct: purchased Upstate (Charlottesville, Va.)
Method: as §2

[12] = biological target: T10, Syk (Homo sapiens, UniProt P43405); assay: Broad selectivity panel, 32P incorporation; type: biochemical; settings: 40 μM ATP, read-out: Percent inhibition Syk; for inhibition at 0.1 µM: 0.1 μM compound; for inhibition at 1 µM: 1 μM compound
T10 construct: purchased Upstate (Charlottesville, Va.)
Method: as §2

T9 sequence (P06239 whole entry, species assumed): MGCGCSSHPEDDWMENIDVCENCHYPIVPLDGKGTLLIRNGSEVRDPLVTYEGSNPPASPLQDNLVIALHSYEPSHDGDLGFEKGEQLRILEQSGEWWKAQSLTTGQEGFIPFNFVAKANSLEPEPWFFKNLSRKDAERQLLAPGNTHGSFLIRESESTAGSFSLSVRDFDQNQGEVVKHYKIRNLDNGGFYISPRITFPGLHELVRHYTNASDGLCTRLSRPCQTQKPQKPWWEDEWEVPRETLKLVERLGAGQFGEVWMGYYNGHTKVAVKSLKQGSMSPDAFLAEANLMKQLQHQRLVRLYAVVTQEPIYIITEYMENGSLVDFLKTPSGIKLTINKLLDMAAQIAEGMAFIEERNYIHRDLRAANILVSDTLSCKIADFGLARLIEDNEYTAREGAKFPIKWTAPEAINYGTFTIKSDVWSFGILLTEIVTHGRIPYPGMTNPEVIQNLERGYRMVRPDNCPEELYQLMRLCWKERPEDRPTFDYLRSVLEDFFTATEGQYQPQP
T1 sequence (P68400 whole entry): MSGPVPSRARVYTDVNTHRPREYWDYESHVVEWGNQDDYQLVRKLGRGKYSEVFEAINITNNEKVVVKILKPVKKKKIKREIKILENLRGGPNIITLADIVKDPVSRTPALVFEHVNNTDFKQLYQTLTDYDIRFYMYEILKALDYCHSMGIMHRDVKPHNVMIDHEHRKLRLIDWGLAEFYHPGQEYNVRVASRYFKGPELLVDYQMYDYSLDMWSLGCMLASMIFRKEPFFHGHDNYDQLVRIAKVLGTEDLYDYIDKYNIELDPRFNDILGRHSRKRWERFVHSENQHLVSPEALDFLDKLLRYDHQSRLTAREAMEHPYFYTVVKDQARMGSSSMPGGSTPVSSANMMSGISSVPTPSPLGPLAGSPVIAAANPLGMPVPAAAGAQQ
T1 sequence (P67870 whole entry partner): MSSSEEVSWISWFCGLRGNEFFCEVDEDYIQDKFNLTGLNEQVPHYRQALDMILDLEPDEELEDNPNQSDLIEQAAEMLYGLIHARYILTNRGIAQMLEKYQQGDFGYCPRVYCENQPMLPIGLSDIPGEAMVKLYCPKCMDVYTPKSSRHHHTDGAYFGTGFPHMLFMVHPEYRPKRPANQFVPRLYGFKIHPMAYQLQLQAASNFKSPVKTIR
T4 sequence (P28482 whole entry): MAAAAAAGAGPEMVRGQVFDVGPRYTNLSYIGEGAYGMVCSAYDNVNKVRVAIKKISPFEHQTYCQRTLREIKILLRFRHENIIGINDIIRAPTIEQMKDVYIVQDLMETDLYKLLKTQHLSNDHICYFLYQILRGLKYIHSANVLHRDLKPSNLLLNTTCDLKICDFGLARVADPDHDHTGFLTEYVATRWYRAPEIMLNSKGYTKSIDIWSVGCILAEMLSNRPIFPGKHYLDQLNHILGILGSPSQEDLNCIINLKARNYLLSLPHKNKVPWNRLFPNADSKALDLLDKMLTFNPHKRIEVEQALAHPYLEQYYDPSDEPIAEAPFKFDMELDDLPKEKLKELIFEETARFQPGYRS
T2 sequence (P49841 whole entry, species assumed): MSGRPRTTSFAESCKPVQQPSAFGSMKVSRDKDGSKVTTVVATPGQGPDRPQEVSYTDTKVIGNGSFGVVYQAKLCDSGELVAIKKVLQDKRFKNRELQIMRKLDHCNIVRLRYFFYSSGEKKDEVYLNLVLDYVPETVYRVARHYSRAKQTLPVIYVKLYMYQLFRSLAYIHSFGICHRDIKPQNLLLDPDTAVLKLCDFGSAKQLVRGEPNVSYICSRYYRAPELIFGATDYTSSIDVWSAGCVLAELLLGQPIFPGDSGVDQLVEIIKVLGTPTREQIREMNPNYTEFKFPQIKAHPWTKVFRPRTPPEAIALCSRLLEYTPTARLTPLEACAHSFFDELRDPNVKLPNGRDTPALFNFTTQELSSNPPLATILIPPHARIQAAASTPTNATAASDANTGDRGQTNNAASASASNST
T5 sequence (Q02750 whole entry, species assumed): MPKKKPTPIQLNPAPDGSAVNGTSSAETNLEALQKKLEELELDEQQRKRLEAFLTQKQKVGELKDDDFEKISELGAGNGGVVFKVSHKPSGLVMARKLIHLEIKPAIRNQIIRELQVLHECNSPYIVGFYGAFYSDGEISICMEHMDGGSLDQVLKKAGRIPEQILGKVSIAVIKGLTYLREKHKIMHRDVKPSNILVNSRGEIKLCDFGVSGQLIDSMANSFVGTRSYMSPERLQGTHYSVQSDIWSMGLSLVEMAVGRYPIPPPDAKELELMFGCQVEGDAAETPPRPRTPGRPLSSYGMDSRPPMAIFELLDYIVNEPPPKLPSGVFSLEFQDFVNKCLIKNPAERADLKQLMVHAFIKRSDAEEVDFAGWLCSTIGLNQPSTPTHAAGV
T6 sequence (P31749 whole entry, species assumed): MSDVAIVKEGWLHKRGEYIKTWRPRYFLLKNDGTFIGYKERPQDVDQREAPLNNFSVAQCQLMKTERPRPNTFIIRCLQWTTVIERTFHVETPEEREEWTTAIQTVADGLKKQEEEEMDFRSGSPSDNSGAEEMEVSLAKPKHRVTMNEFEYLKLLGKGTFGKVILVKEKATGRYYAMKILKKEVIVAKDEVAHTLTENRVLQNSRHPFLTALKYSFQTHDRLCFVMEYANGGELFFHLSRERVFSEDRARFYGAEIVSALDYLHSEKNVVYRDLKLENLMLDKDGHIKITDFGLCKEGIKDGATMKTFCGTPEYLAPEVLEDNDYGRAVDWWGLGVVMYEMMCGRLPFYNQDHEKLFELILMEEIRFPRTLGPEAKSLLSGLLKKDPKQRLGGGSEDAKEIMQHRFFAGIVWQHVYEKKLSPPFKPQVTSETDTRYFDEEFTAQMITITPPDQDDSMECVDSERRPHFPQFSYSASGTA
T3 sequence (P53779 whole entry): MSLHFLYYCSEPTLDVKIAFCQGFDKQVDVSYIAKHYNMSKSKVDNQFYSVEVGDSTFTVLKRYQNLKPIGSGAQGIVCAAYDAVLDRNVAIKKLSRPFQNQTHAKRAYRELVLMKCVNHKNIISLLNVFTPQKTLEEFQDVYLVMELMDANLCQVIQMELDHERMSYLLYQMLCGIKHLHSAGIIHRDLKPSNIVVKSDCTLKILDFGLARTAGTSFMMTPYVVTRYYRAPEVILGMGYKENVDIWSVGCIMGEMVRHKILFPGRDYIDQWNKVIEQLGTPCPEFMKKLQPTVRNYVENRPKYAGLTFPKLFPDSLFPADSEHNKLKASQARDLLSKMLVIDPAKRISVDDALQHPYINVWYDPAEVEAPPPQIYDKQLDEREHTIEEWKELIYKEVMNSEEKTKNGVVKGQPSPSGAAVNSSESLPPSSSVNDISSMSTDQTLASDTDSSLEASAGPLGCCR
T8 sequence (P06213 28-1382, species assumed): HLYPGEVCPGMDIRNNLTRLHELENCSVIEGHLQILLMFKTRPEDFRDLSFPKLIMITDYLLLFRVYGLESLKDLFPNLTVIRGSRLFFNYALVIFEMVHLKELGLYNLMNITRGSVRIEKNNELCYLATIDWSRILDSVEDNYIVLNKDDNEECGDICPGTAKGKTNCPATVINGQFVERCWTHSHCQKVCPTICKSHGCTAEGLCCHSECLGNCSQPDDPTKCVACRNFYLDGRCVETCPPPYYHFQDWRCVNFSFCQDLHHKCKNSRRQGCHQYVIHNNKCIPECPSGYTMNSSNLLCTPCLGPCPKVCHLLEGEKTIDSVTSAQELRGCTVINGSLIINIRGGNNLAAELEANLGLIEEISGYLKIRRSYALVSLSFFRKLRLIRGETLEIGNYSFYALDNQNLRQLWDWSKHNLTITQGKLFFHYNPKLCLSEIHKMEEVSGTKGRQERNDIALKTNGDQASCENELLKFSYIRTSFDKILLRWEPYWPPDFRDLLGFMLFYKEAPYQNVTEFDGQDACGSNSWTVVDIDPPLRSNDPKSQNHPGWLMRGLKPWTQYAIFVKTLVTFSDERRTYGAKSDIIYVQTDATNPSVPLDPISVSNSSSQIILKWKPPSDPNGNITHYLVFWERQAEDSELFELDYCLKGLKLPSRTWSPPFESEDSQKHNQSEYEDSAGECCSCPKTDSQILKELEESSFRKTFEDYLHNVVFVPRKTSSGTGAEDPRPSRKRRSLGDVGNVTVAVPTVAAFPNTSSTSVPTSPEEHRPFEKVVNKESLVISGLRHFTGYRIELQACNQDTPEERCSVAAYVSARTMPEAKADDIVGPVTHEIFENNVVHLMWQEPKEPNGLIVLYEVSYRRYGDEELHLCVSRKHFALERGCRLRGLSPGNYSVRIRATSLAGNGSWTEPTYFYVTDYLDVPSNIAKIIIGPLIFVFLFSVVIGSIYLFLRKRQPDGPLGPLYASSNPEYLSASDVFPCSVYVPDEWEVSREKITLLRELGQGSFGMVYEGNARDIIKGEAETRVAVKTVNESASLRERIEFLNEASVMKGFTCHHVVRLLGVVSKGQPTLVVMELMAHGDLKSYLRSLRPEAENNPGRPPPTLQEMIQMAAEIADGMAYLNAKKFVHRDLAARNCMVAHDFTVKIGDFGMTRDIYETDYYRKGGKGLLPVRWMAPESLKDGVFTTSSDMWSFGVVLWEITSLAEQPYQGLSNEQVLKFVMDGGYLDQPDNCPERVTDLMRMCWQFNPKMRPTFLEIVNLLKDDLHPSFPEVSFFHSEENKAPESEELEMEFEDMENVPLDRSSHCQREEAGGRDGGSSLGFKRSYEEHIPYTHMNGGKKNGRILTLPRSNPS

inhibition at 0.1 µM [2] | inhibition at 1 µM [2] | inhibition at 0.1 µM [3] | inhibition at 1 µM [3] | inhibition at 0.1 µM [4] | inhibition at 1 µM [4] | inhibition at 0.1 µM [5] | inhibition at 1 µM [5] | inhibition at 0.1 µM [6] | inhibition at 1 µM [6] | inhibition at 0.1 µM [7] | inhibition at 1 µM [7] | inhibition at 0.1 µM [9] | inhibition at 1 µM [9] | Compound | IC50 [1] | Percent inhibition ROCK-II ([8]; 0.1 μM compound) | Percent inhibition ROCK-II ([8]; 1 μM compound) | inhibition at 0.1 µM [10] | inhibition at 1 µM [10] | inhibition at 0.1 µM [11] | other results
8% | 4% | 15% | 57% | 97% | 101% | 14% | 43% | 7% | 11% | 5% | 6% | 3% | 0% | CS(=O)(=O)N1CCC(Nc2nccc(-c3c(-c4ccc(F)cc4)nc4occn34)n2)CC1 [CCLXXIX] | 5.1 nM | 10 | 12 | 9% | 2% | 2% | inhibition at 1 µM [11]: -3%; inhibition at 0.1 µM [12]: 3%; inhibition at 1 µM [12]: 10%
5% | 10% | 16% | 66% | 78% | 100% | 18% | 42% | 6% | 13% | -6% | 4% | -3% | -4% | CC(=O)N1CCC(Nc2nccc(-c3c(-c4ccc(F)cc4)nc4occn34)n2)CC1 [CCLXXVIII] | 9.26 nM | −6 | 6 | -28% | -4% | 5% | inhibition at 1 µM [11]: 31%
10% | 32% | 5% | 14% | 39% | 84% | -9% | 9% | 9% | 13% | -1% | 13% | 0% | 6% | Fc1ccc(-c2nc3occn3c2-c2ccnc(NC3CCNCC3)n2)cc1 [CCLXXX] | 7.89 nM | 8 | 10 | – | – | -3% | inhibition at 1 µM [11]: 27%; inhibition at 0.1 µM [12]: 5%; inhibition at 1 µM [12]: 40%
9% | 3% | 11% | 13% | 19% | 56% | 10% | 7% | -1% | 2% | 11% | 5% | 3% | -4% | CN(C)CC(C)(C)CNc1nccc(-c2c(-c3ccc(F)cc3)nc3occn23)n1 [CXIX] | 33.1 nM | 16 | −8 | 8% | 3% | – | inhibition at 0.1 µM [12]: 35%; inhibition at 1 µM [12]: 33%
– | – | – | – | – | – | – | – | – | – | – | – | – | – | Fc1ccc(-c2nc3occn3c2-c2ccnc(NC3CN4CCC3CC4)n2)cc1 (stereo not drawn) [LXXXIV] | 9.28 nM | – | – | – | – | – | –

Compound | inhibition at 0.1 µM [2] | inhibition at 1 µM [2] | inhibition at 0.1 µM [3] | inhibition at 1 µM [3] | inhibition at 0.1 µM [4] | inhibition at 1 µM [4] | inhibition at 0.1 µM [5] | inhibition at 1 µM [5] | inhibition at 0.1 µM [6] | inhibition at 1 µM [6] | inhibition at 0.1 µM [7] | inhibition at 1 µM [7] | inhibition at 0.1 µM [9] | inhibition at 1 µM [9] | IC50 [1] | Percent inhibition ROCK-II ([8]; 0.1 μM compound) | Percent inhibition ROCK-II ([8]; 1 μM compound) | inhibition at 0.1 µM [10] | inhibition at 1 µM [10] | inhibition at 0.1 µM [11] | other results
CN1[C@@H]2CC[C@H]1C[C@@H](Nc1nccc(-c3c(-c4ccc(F)cc4)nc4occn34)n1)C2 [CCLXXXI] | 6% | 16% | 6% | 19% | 19% | 75% | 10% | 23% | -3% | 7% | -2% | 6% | 2% | 7% | 3.64 nM | 10 | 9 | -7% | 14% | 26% | inhibition at 1 µM [11]: 35%; inhibition at 0.1 µM [12]: 17%; inhibition at 1 µM [12]: 33%
Fc1ccc(-c2nc3occn3c2-c2ccnc(N[C@@H]3CN4CCC3CC4)n2)cc1 [LXXI] | 3% | 12% | -8% | 10% | -7% | 59% | -5% | 18% | 2% | 6% | -5% | 9% | -1% | 3% | 19.1 nM | −7 | 10 | -25% | 12% | 8% | inhibition at 1 µM [11]: 17%; inhibition at 0.1 µM [12]: -5%; inhibition at 1 µM [12]: 33%
Fc1ccc(-c2nc3occn3c2-c2ccnc(N[C@H]3CN4CCC3CC4)n2)cc1 [LXXXVII] | 4% | 4% | 6% | 8% | 19% | 61% | -4% | 14% | 3% | -1% | -2% | 5% | -3% | -1% | 1.87 nM | 2 | 8 | -8% | 8% | -15% | inhibition at 1 µM [11]: 18%; inhibition at 0.1 µM [12]: 17%; inhibition at 1 µM [12]: 23%
